Test results: patent US20030044399A1, “Method of treatment” (SmithKline Beecham Corporation, priority 1998, published 2003)
Like-named read-outs stand apart in the source and are kept apart here.

Experiments:
Rhodazain = Rhodazain (Trypanosoma brucei rhodesiense, UniProt Q95PM0); experiment: Cysteine protease inhibition, progress curve method, rhodazain; assay type: biochemical, Trypanosoma brucei rhodesiensi; conditions: 10 uM Cbz-Leu-Arg-AMC, 100 mM Na acetate pH 5.5, 5 mM cysteine
Method: (§1) Standard assay conditions for the determination of kinetic constants used 10 uM fluorogenic peptide substrate, Cbz-Phe-Arg-AMC for the cysteine proteases from Leishmania spp and Schistosoma Mansoni, Cbz-Leu-Arg-AMC for the cysteine proteases from Plasmodium falciparum and Trypanosoma brucei rhodesiensi, and Ac-Lys-Glu-Lys-Leu-Arg-AMC (4 uM final substrate concentration) for the cysteine protease from Trypoanosoma cruzi, and were determined in 100 mM Na acetate at pH 5.5 containing 5 mM cysteine. Stock substrate solutions were prepared at concentrations of […] in DMSO with 10 uM (4 uM for Ac-Lys-Glu-Lys-Leu-Arg-AMC) final substrate concentration in the assays. The final DMSO concentration was 2% and the final volume was 100 uL. All assays were conducted at ambient temperature. Product progress curves were generated over 20 to 30 minutes following formation of AMC product.
(§2) Potential inhibitors were evaluated using the progress curve method. Assays were carried out in the presence of variable concentrations of test compound. Reactions were initiated by addition of enzyme to buffered solutions of inhibitor and substrate. Data analysis was conducted according to one of two procedures depending on the appearance of the progress curves in the presence of inhibitors. For those compounds whose progress curves were linear, apparent inhibition constants (Ki,app) were calculated according to equation 1 (Brandt et al., Biochemitsry, 1989, 28, 140):
(§3) v=VmA/[Ka(1+I/Ki,app)+A] (1)
(§4) Where v is the velocity of the reaction with maximal velocity Vm, A is the concentration of substrate with Michaelis constant of Ka, and I is the concentration of inhibitor.
(§5) [AMC]=vsst+(v0−vss)[1−exp (−kobst)]/kobs (2)
(§6) Where [AMC] is the concentration of product formed over time t, v0 is the initial reaction velocity and vss is the final steady state rate. Values for kobs were then analyzed as a linear function of inhibitor concentration to generate an apparent second order rate constant (kobs/inhibitor concentration or kobs/[I]) describing the time-dependent inhibition. A complete discussion of this kinetic treatment has been fully described (Morrison et al., Adv. Enzymol. Relat. Areas Mol. Biol., 1988, 61, 201).
(§7) Exemplary inhibition data for the compounds used in the present method collected in accordance with the above-described procedure are listed in Table I.

Cruzain = Cruzain (Trypanosoma cruzi, UniProt P25779); experiment: Cysteine protease inhibition, progress curve method, cruzain; assay type: biochemical; conditions: 4 uM Ac-Lys-Glu-Lys-Leu-Arg-AMC, 100 mM Na acetate pH 5.5, 5 mM cysteine; read-out: Cruzain Ki
Method: as §1, §2, §3, §4, §5, §6, §7

Chain of Rhodazain (Q95PM0 entry or part of it): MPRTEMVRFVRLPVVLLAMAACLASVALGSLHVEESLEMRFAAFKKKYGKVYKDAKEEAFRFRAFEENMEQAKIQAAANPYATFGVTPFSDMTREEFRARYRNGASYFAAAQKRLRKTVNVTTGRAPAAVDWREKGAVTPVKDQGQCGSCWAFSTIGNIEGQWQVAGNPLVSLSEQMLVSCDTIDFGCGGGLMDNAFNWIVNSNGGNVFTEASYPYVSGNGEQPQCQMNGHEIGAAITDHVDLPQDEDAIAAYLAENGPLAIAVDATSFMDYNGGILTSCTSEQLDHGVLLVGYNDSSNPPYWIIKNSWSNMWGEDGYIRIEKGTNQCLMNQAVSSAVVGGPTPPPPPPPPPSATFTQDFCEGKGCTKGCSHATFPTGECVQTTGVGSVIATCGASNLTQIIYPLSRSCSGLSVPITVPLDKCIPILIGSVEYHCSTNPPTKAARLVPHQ
Chain of Cruzain (P25779 123-337): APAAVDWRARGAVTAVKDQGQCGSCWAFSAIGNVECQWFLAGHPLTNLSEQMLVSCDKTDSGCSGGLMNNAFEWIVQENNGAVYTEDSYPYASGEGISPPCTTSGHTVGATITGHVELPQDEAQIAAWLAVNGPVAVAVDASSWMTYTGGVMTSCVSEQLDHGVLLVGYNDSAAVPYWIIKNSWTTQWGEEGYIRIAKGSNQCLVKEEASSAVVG

| Compound | Ki (Rhodazain; Rhodazain Ki (nM)) | Ki (Cruzain) | Ki (Rhodazain; read-out: Rhodazain Ki) |
| --- | --- | --- | --- |
| Cc1c(C(=O)N[C@H](CC(C)C)C(=O)NC2CCCN(S(=O)(=O)c3cccc[n+]3[O-])CC2=O)oc2ccccc12 (stereo partly drawn) [Example 57, 3-Methyl-benzofuran-2-carboxylic acid {(S)-3-methyl-1-[3-oxo-1-(1-oxy-pyridine-2-sulfonyl)-azepan-4-ylcarbamoyl]-butyl}amide] | 5.4 nM | 10 nM |  |
| Cc1c(C(=O)NC(CC(C)C)C(=O)N[C@H]2CCCN(S(=O)(=O)c3cccc[n+]3[O-])CC2=O)oc2cc(F)ccc12 (single isomer, unassigned) [Example 196] | 6.8 nM | 11 nM |  |
| COc1cccc2oc(C(=O)N[C@@H](CC(C)C)C(=O)NC3CCCN(S(=O)(=O)c4cccc[n+]4[O-])CC3=O)c(C)c12 (stereo partly drawn) [Example 208, 4-Methoxy-3-methyl-benzofuran-2-carboxylic acid {(S)-3-methyl-1-[3-oxo-1-(1-oxy-pyridine-2-sulfonyl)-azepan-4-ylcarbamoyl]-butyl}-amide] |  | 10 nM | 4.2 nM |
| CC(C)C[C@@H](NC(=O)c1ccc2ncccc2c1)C(=O)N[C@@H]1CCCN(S(=O)(=O)c2ccccn2)CC1=O (stereo in doubt) [Example 25, Quinoline-6-carboxylic acid {(S)-3-methyl-1-[3-oxo-1-(pyridine-2-sulfonyl)-azepan-4-ylcarbamoyl]-butyl}amide] | 8 nM | 8.3 nM |  |
| Cc1c(C(=O)N[C@H](CC(C)C)C(=O)N[C@@H]2CCCN(S(=O)(=O)c3cccc[n+]3[O-])CC2=O)oc2ccccc12 (single isomer, unassigned) [Example 99] | 5.1 nM | 7.8 nM |  |
| CC(C)C[C@@H](NC(=O)c1ccnc2ccccc12)C(=O)N[C@@H]1CCCN(S(=O)(=O)c2ccccn2)CC1=O (stereo in doubt) [Example 26, Quinoline-4-carboxylic acid {(S)-3-methyl-1-[3-oxo-1-(pyridine-2-sulfonyl)-azepan-4-ylcarbamoyl]-butyl}amide] | 8.1 nM | 9.4 nM |  |
| 5-(2-Morpholin-4-yl-ethoxy)-benzofuran-2-carboxylic acid {(S)-3-methyl-1-[3-oxo-(1-oxy-pyridine2-sulfonyl)-azepan-4-ylcarbamoyl]-buty}-amide [Example 116] |  | 4.4 nM | 3.2 nM |
| Cc1c(C(=O)N[C@@H](CC(C)C)C(=O)NC2CCCN(S(=O)(=O)c3ccccn3)CC2=O)oc2ccccc12 (stereo partly drawn) [Example 70, 3-Methyl-benzofuran-2-carboxylic acid {(S)-3-methyl-1-[3-oxo-1-(pyridine-2-sulfonyl)-azepan-4-ylcarbamoyl]-butyl}amide] | 5.5 nM | 6.6 nM |  |
| CC(C)C[C@H](NC(=O)c1cc2ccccc2s1)C(=O)N[C@H]1CCCN(C(=O)Nc2ccccc2F)CC1=O (stereo in doubt) [Example 215, Benzo[b]thiophene-2-carboxylic acid {(S)-1-[1-(2-fluoro-phenylcarbamoyl)-3-oxo-azepan-4-ylcarbamoyl]-3-methyl-butyl}-amide] | 3.6 nM | 6.4 nM |  |
| CC(C)C[C@H](NC(=O)c1ccc(-c2ccc(Cl)cc2)o1)C(=O)N[C@@H]1CCCN(S(=O)(=O)c2ccccn2)CC1=O [Example 65, 5-(4-Chloro-phenyl)-furan-2-carboxylic acid {(S)-3-methyl-1-[3-oxo-1-(pyridine-2-sulfonyl)-azepan-4-ylcarbamoyl]-butyl}amide] | 8.1 nM |  |  |
| Naphthyridine-2-carboxylic acid {(S)-3-methyl-1-[3-oxo-1-(pyridine-2-sulfonyl)-azepan-4-ylcarbamoyl]-butyl}-amide [Example 177] |  |  | 9 nM |
| COc1ccc2oc(C(=O)N[C@@H](CC(C)C)C(=O)N[C@H]3CCCN(S(C)(=O)=O)CC3=O)cc2c1 [Example 81, 5-Methoxy-benzofuran-2-carboxylic acid [(S)-1-(1-methanesulfonyl-3-oxo-azepan-4-ylcarbamoyl)-3-methyl-butyl]-amide] | 7.2 nM |  |  |
| CC(C)C[C@@H](NC(=O)c1cnc2ccccc2c1)C(=O)N[C@@H]1CCCN(S(=O)(=O)c2ccccn2)CC1=O [Example 27] | 13 nM |  |  |
| Cc1c(C(=O)N[C@H](CC(C)C)C(=O)N[C@H]2CCCN(S(=O)(=O)c3cccc[n+]3[O-])CC2=O)oc2cc(F)ccc12 [Example 193, 6-Fluoro-3-methyl-benzofuran-2-carboxylic acid {(S)-3-methyl-1-[3-oxo-1-(1-oxy-pyridine-2-sulfonyl)-azepan-4-ylcarbamoyl]-butyl}-amide] | 8.1 nM |  |  |
| COc1ccc(C(=O)NC(CC(C)C)C(=O)N[C@@H]2CCCN(S(C)(=O)=O)CC2=O)cc1OC (stereo partly drawn) [Example 113] | 7.8 nM |  |  |
| CC(C)C[C@H](NC(=O)c1cc2ccccc2o1)C(=O)N[C@@H]1CCCN(S(C)(=O)=O)CC1=O [Example 112, Benzofuran-2-carboxylic acid-{(S)-1-(1-methanesulfonyl-3-oxo-azepan-4-ylcarbamoyl)-3-methyl-butyl]-amide] | 8.5 nM |  |  |
| CC(C)C[C@H](NC(=O)c1nc(-c2ccccc2)oc1C(F)(F)F)C(=O)NC1CCCN(S(=O)(=O)c2ccccn2)CC1=O (stereo partly drawn) [Example 72, 2-Phenyl-5-trifluoromethyl-oxazole-4-carboxylic acid {(S)-3-methyl-1-[3-oxo-1-(pyridine-2-sulfonyl)-azepan-4-ylcarbamoyl]-butyl}amide] | 9.9 nM |  |  |
| CC(C)C[C@@H](NC(=O)c1cc2cc(F)ccc2o1)C(=O)N[C@@H]1CCCN(S(=O)(=O)c2ccccn2)CC1=O (single isomer, unassigned) [Example 168] | 2.7 nM |  |  |
| CC(C)CC(NC(=O)c1ccco1)C(=O)N[C@@H]1CCCN(S(=O)(=O)c2cccc[n+]2[O-])CC1=O (stereo partly drawn) [Example 75, Furan-2-carboxylic acid {(S)-3-methyl-1-[3-oxo-1-(1-oxy-pyridine-2-sulfonyl)-azepan-4-ylcarbamoyl]-butyl}amide] | 7.5 nM |  |  |
| CC(C)C[C@@H](NC(=O)c1cc2sccc2s1)C(=O)N[C@@H]1CCCN(S(=O)(=O)c2cccc[n+]2[O-])CC1=O [Example 62, Thieno[3,2-b]thiophene-2-carboxylic acid {(S)-3-methyl-1-[3-oxo-1-(1-oxy-pyridine-2-sulfonyl)-azepan-4-ylcarbamoyl]-butyl}amide] | 5.3 nM |  |  |
| COc1ccc(CC(=O)N[C@@H](CC(C)C)C(=O)NC2CCCN(S(=O)(=O)c3ccccn3)CC2=O)cc1OCc1ccccc1 (stereo partly drawn) [Example 123] | 31 nM |  |  |
| Cc1coc(C(=O)N[C@@H](CC(C)C)C(=O)N[C@H]2CCCN(C(=O)Nc3ccccc3F)CC2=O)c1 [Example 222, 4-Methyl-furan-2-carboxylic acid {(S)-1-[1-(2-fluoro-phenylcarbamoyl)-3-oxo-azepan-4-ylcarbamoyl]-3-methyl-butyl}-amide] | 4.9 nM |  |  |
| CCc1c(C(=O)N[C@@H](CC(C)C)C(=O)N[C@H]2CCN(S(=O)(=O)c3cccc[n+]3[O-])CCC2=O)oc2ccccc12 [Example 202, 3-Ethyl-benzofuran-2-carboxylic acid {(S)-3-methyl-1-[3-oxo-1-(1-oxy-pyridine-2-sulfonyl)-azepan-4-ylcarbamoyl]-butyl}-amide] | 8.7 nM |  |  |
| CC(C)C[C@@H](NC(=O)c1ccc(-c2ccc([N+](=O)[O-])cc2)o1)C(=O)N[C@@H]1CCCN(S(=O)(=O)c2ccccn2)CC1=O (stereo in doubt) [Example 36, 5-(4-Nitro-phenyl)-furan-2-carboxylic acid {(S)-3-methyl-1-[3-oxo-1-(pyridine-2-sulfonyl)-azepan-4-ylcarbamoyl]-butyl}amide] | 9.1 nM |  |  |
| O=C(N[C@H](Cc1ccccc1)C(=O)N[C@@H]1CCCN(S(=O)(=O)c2ccccn2)CC1=O)c1ccc2ccccc2n1 (stereo in doubt) [Example 180, Quinoline-2-carboxylic acid {(S)-1-[3-oxo-1-(pyridine-2-sulfonyl)-azepan-4-ylcarbamoyl]-2-phenyl-ethyl}-amide] | 9.3 nM |  |  |
| CC(C)C[C@@H](NC(=O)c1cc2cc(F)ccc2o1)C(=O)N[C@H]1CCCN(S(=O)(=O)c2ccccn2)CC1=O (stereo in doubt) [Example 166, 5-Fluoro-benzofuran-2-carboxylic acid {(S)-3-methyl-1-[3-oxo-1-(pyridine-2-sulfonyl)-azepan-4-ylcarbamoyl]-butyl}-amide] | 6 nM |  |  |
| COc1ccc(CCCCC(=O)NC(CC(C)C)C(=O)NC2CCCN(S(=O)(=O)c3ccccn3)CC2=O)cc1 [Example 122, (S)-2-[5-(4-Methoxy-phenyl)-pentanoylamniol-4-methyl-pentanoic acid [3-oxo-1-(pyridine-2-sulfonyl)-azepan-4-yl[-amide] | 8.8 nM |  |  |
